From ChEMBL document CHEMBL1130271, “Synthesis and pharmacological evaluation of N-(2,5-disubstituted phenyl)-N'-(3-substituted phenyl)-N'-methylguanidines as N-methyl-D-aspartate receptor ion-channel blockers” (J Med Chem, 1997)
Where a name gives a salt, the structure may show the parent alone.

target: not listed separately; assay: Binding assay for the sigma receptor sites is performed by utilizing [3H]N,N-di-o-tolylguanidine ([3H]DTG) and guinea pig brain membrane suspensions

| SMILES | IC50 [µM] |
| --- | --- |
| CCc1cccc(N(C)C(N)=Nc2cccc3ccccc23)c1 [APTIGANEL HYDROCHLORIDE] | 2.54 |
| CCc1cccc(NC(=N)N(C)c2cccc(CC)c2)c1 | 0.082 |

target: Glutamate NMDA receptor; assay: In vitro radioligand binding assay for the N-methyl-D-aspartate glutamate receptor is performed using [3H]MK-801 and rat brain membrane suspensions

| SMILES | Ki [µM] |
| --- | --- |
| CCc1cccc(N(C)C(=N)Nc2cccc(SC)c2)c1 | 0.0064 |
| CCc1cccc(NC(=N)Nc2cc(Cl)cc(Cl)c2)c1 | 0.115 |
| CCc1cccc(N(C)C(=N)N(C)c2cc(Br)ccc2Br)c1 | 0.027 |
| CCc1cccc(NC(=N)Nc2cc(CC)cc(CC)c2F)c1 | 0.05 |
| CCc1cccc(N(C)C(=N)Nc2ccccc2Br)c1 | 0.265 |
| CCc1cccc(NC(=N)Nc2cccc(Cl)c2Cl)c1 | 0.156 |
| CCc1cccc(NC(=N)Nc2ccccc2C)c1 | 0.768 |
| CCc1cccc(NC(=N)Nc2cccc(Br)c2)c1 | 0.051 |
| CCc1cccc(NC(=N)Nc2cc(CC)cc(CC)c2Br)c1 | 0.029 |
| CCc1cccc(N(C)C(=N)Nc2ccccc2C(C)C)c1 | 0.564 |
| CCc1cccc(N(C)C(=N)Nc2cccc(Cl)c2Cl)c1 | 0.116 |
| CCc1cccc(N(C)C(=N)Nc2cc(Cl)ccc2Cl)c1 | 0.065 |
| CCc1cccc(NC(=N)Nc2ccc(Cl)cc2Cl)c1 | 0.14 |
| CCc1cccc(N(C)C(=N)Nc2ccccc2Cl)c1 | 0.386 |
| CCc1cccc(NC(=N)Nc2cccc(Cl)c2)c1 | 0.112 |
| CCc1cccc(NC(=N)N(C)c2cc(CC)ccc2Cl)c1 | 0.065 |
| CCc1cccc(NC(=N)Nc2cc(Cl)ccc2Cl)c1 | 0.068 |
| CCc1cccc(NC(=N)Nc2cc(C)cc(CC)c2Cl)c1 | 0.077 |
| CCc1cccc(N(C)C(=N)N(C)c2cc(Cl)ccc2Cl)c1 | 0.072 |

| SMILES | Ki [µM] |
| --- | --- |
| CCc1cccc(NC(=N)Nc2ccccc2CC)c1 | 0.35 |
| CCc1cccc(NC(=N)Nc2ccc(Cl)cc2)c1 | 0.738 |
| CCc1cccc(N(C)C(=N)Nc2cccc(Br)c2)c1 | 0.081 |
| CCc1cccc(N(C)C(=N)Nc2ccc(Cl)c(Cl)c2)c1 | 1.28 |
| CCc1cccc(N(C)C(N)=Nc2cccc3ccccc23)c1 [APTIGANEL HYDROCHLORIDE] | 0.029 |
| CCc1cccc(N(C)C(=N)Nc2cc(CC)cc(CC)c2F)c1 | 0.097 |
| CCc1cccc(NC(=N)Nc2cc(SC)cc(CC)c2Cl)c1 | 0.0118 |
| CCc1cccc(N(C)C(=N)Nc2ccccc2I)c1 | 0.101 |
| CCc1cccc(NC(=N)Nc2ccccc2Cl)c1 | 0.249 |
| CCc1cccc(N(C)C(=N)Nc2cccc(Cl)c2)c1 | 0.497 |
| CCc1cccc(N(C)C(=N)N(C)c2cc(CC)ccc2Cl)c1 | 0.111 |
| CCc1cccc(NC(=N)Nc2c(Cl)cccc2Cl)c1 | 0.133 |
| CCc1cccc(N(C)C(=N)Nc2ccc(Cl)cc2)c1 | 3.34 |
| CCc1cccc(N(C)C(=N)Nc2cc(C)cc(CC)c2Cl)c1 | 0.078 |
| CCc1cccc(NC(=N)Nc2cccc(CC)c2)c1 | 0.129 |
| CCc1cccc(NC(=N)Nc2ccc(Cl)c(Cl)c2)c1 | 0.204 |
| CCc1cccc(NC(=N)Nc2cc(CC)cc(CC)c2)c1 | 0.129 |
| CCc1cccc(NC(=N)Nc2ccccc2C(C)C)c1 | 0.23 |
